Reference: ChEMBL document CHEMBL3039007, “Structure-based identification of OATP1B1/3 inhibitors” (Mol Pharmacol, 2013)

Key:
[1] = target: T1, Solute carrier organic anion transporter family member 1B1 (Homo sapiens, UniProt Q9Y6L6); conditions: chinese hamster, cho, 10 µM
T1 sequence (Q9Y6L6 whole entry): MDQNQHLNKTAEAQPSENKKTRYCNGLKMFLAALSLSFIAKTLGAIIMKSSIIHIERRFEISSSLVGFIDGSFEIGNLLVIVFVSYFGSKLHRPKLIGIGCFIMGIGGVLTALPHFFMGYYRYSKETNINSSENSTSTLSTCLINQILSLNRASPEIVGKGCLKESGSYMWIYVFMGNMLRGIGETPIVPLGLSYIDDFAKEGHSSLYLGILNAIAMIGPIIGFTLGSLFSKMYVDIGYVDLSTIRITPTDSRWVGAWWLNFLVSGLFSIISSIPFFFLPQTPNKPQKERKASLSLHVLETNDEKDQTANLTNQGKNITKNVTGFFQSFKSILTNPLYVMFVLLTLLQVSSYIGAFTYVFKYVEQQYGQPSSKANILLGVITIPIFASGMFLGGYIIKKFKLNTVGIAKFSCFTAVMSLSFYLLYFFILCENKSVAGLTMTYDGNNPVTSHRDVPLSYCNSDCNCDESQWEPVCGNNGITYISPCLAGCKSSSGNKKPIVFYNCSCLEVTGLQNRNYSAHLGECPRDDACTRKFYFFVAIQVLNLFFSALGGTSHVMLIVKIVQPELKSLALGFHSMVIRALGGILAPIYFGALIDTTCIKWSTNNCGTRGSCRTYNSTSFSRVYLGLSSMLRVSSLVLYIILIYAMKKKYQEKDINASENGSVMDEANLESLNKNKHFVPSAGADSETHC

[2] = target: T2, Solute carrier organic anion transporter family member 1B3 (Homo sapiens, UniProt Q9NPD5); conditions: chinese hamster, cho, 10 µM
T2 sequence (Q9NPD5 whole entry): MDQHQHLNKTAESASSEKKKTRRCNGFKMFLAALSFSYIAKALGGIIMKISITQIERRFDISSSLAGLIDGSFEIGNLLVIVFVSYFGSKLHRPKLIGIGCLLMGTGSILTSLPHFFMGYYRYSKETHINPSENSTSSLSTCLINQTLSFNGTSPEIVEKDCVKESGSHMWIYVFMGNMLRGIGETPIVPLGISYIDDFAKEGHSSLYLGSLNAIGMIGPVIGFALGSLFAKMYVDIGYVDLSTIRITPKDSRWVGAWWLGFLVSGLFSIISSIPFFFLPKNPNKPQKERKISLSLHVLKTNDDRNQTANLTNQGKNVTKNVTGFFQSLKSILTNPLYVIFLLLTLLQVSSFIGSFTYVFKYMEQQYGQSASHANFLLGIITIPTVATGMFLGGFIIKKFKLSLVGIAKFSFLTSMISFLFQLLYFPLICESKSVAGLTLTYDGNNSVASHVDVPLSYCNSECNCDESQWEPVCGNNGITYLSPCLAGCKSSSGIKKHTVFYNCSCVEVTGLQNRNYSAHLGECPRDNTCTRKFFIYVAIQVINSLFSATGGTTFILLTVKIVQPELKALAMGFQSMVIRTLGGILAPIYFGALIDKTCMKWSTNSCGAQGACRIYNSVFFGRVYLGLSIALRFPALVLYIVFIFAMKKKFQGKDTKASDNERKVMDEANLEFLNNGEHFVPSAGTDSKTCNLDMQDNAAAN

residual activity [1] [%]	residual activity [2] [%]	SMILES
67.3	76.34	O=c1oc2cc(O)ccc2s1 [TIOXOLONE]
100.5	106.5	CCOC(=O)NNc1nncc2ccccc12.Cl [TODRALAZINE HYDROCHLORIDE]
74.2	98.49	Cl.c1ccc(CC2=NCCN2)cc1 [TOLAZOLINE HYDROCHLORIDE]
125.3	99.86	CCCCNC(=O)NS(=O)(=O)c1ccc(C)cc1 [TOLBUTAMIDE]
126.3	119	Cc1cccc(N(C)C(=S)Oc2ccc3ccccc3c2)c1 [TOLNAFTATE]
93.31	106.5	CC1(C)O[C@@H]2[C@@H](CO[C@@]3(COS(N)(=O)=O)OC(C)(C)O[C@@H]23)O1 [TOPIRAMATE]
73.9	73.29	Cc1cccc(Nc2ccncc2S(=O)(=O)NC(=O)NC(C)C)c1 [TORSEMIDE]
80.52	100.9	CC(C)c1c(O)ccc2c1CC[C@H]1[C@@](C)(C=O)CCC[C@]21C [TOTARAL]
159.4	131.3	CC(C)c1c(O)ccc2c1CC[C@H]1C(C)(C)CCC[C@]21C [TOTAROL]
98.2	86.74	CC(=O)OCC(COC(C)=O)OC(C)=O [TRIACETIN]
98.08	104.9	CC(=O)OCC(=O)[C@@]1(O)[C@H](OC(C)=O)C[C@H]2[C@@H]3CCC4=CC(=O)C=C[C@]4(C)[C@@]3(F)[C@@H](O)C[C@@]21C [TRIAMCINOLONE DIACETATE]
70.81	81.81	C[C@]12C=CC(=O)C=C1CC[C@H]1[C@@H]3C[C@@H](O)[C@](O)(C(=O)CO)[C@@]3(C)C[C@H](O)[C@@]12F [TRIAMCINOLONE]
79.5	127.6	O=c1cc(-c2cc(O)c(O)c(O)c2)oc2cc(O)cc(O)c12 [TRICETIN]
81.82	86.79	NS(=O)(=O)c1cc2c(cc1Cl)NC(C(Cl)Cl)NS2(=O)=O (centres undefined) [TRICHLORMETHIAZIDE]
64.99	84.35	O=c1[nH]c(=O)n([C@H]2C[C@H](O)[C@@H](CO)O2)cc1C(F)(F)F [TRIFLURIDINE]
111	140.2	COc1cc(C(=O)NCc2ccc(OCCN(C)C)cc2)cc(OC)c1OC.Cl [TRIMETHOBENZAMIDE HYDROCHLORIDE]
82.92	97.26	COc1cc(Cc2cnc(N)nc2N)cc(OC)c1OC [TRIMETHOPRIM]
103.1	86.89	Cc1cc2cc3c(C)cc(=O)oc3c(C)c2o1 [TRIOXSALEN]
158.2	80.8	C=C(C)C1Cc2c(ccc(C(=O)O)c2O)O1 (centres undefined) [TUBAIC ACID]

Continued, molecule first:

SMILES	residual activity [1] [%]	residual activity [2] [%]
CC(C)(C)NC[C@H](O)COc1nsnc1N1CCOCC1.O=C(O)/C=C\C(=O)O [TIMOLOL MALEATE]	113.3	102.2
NC[C@H]1O[C@H](O[C@H]2[C@H](O)[C@@H](O[C@H]3O[C@H](CO)[C@@H](O)[C@H](N)[C@H]3O)[C@H](N)C[C@@H]2N)[C@H](N)C[C@@H]1O [TOBRAMYCIN]	197.1	105.2
Cc1c(Cl)cccc1Nc1ccccc1C(=O)O [TOLFENAMIC ACID]	95.07	77.01
Cc1ccc(C(=O)c2ccc(CC(=O)[O-])n2C)cc1.[Na+] [TOLMETIN SODIUM]	127.1	90.31
Cc1ccc(C(=O)C(C)CN2CCCCC2)cc1.Cl (centres undefined) [TOLPERISONE HYDROCHLORIDE]	96.3	112.7
C[C@H]1CC[C@]2(NC1)O[C@H]1C[C@H]3[C@@H]4CC[C@H]5C[C@@H](O[C@@H]6O[C@H](CO)[C@H](O[C@@H]7O[C@H](CO)[C@@H](O)[C@H](O[C@@H]8OC[C@@H](O)[C@H](O)[C@H]8O)[C@H]7O[C@@H]7O[C@H](CO)[C@@H](O)[C@H](O)[C@H]7O)[C@H](O)[C@H]6O)CC[C@]5(C)[C@H]4CC[C@]3(C)[C@H]1[C@@H]2C [TOMATINE]	96.72	100.3
CC1(C)C(C(Cl)Cl)C2(Cl)C(Cl)C(Cl)C1(Cl)C2(Cl)Cl (centres undefined) [TOXAPHENE]	111.3	109.5
CCOC(=O)[C@H](CCc1ccccc1)N[C@@H](C)C(=O)N1[C@H](C(=O)O)C[C@H]2CCCC[C@@H]21 [TRANDOLAPRIL]	118	102.1
NC[C@H]1CC[C@H](C(=O)O)CC1 [TRANEXAMIC ACID]	81.79	102.3
Cl.N[C@@H]1C[C@H]1c1ccccc1 [TRANYLCYPROMINE HYDROCHLORIDE]	80.64	89.57
N[C@@H]1C[C@H]1c1ccccc1.N[C@H]1C[C@@H]1c1ccccc1.O=S(=O)(O)O [TRANYLCYPROMINE SULFATE]	73.89	84.19
Cl.O=c1n(CCCN2CCN(c3cccc(Cl)c3)CC2)nc2ccccn12 [TRAZODONE HYDROCHLORIDE]	98.06	111.6
CC(=O)Oc1ccc(/C=C/c2cc(OC(C)=O)cc(OC(C)=O)c2)cc1 [TRIACETYLRESVERATROL]	160.6	143.6
CC(C)(C)C(=O)C(Oc1ccc(Cl)cc1)n1cncn1 (centres undefined) [TRIADIMEFON]	75.79	87.3
CC(C)N(C(=O)SCC(Cl)=C(Cl)Cl)C(C)C [TRIALLATE]	119.9	109.6
CC1(C)O[C@@H]2C[C@H]3[C@@H]4CCC5=CC(=O)C=C[C@]5(C)[C@@]4(F)[C@@H](O)C[C@]3(C)[C@]2(C(=O)CO)O1 [TRIAMCINOLONE ACETONIDE]	128.1	115.5
CCCN(CCC)c1c([N+](=O)[O-])cc(C(F)(F)F)cc1[N+](=O)[O-] [TRIFLURALIN]	93.6	102.7
C[n+]1cccc(C(=O)[O-])c1 [TRIGONELLINE]	111.6	98.34
CC(CN(C)C)CN1c2ccccc2CCc2ccccc21.O=C(O)/C=C\C(=O)O (centres undefined) [TRIMIPRAMINE MALEATE]	93.52	103.3
CN(C)CCN(Cc1ccccc1)c1ccccn1.O=C(O)CC(O)(CC(=O)O)C(=O)O [TRIPELENNAMINE CITRATE]	81.25	93.75
CC(C)[C@]12O[C@H]1[C@@H]1O[C@@]13[C@@]1(C)CCC4=C(COC4=O)[C@@H]1C[C@@H]1O[C@@]13C2=O [TRIPTONIDE]	74.69	84.23
CC(C)c1ccc2c(c1O)CC[C@H]1C3=C(CC[C@]21C)C(=O)OC3 [TRIPTOPHENOLIDE]	120.3	110.8
CCN(Cc1ccncc1)C(=O)C(CO)c1ccccc1 (centres undefined) [TROPICAMIDE]	75.11	81.94
C[C@@H]1O[C@@H](OC[C@H]2O[C@@H](Oc3c(-c4ccc(OCCO)c(OCCO)c4)oc4cc(OCCO)cc(O)c4c3=O)[C@H](O)[C@@H](O)[C@@H]2O)[C@H](O)[C@H](O)[C@H]1O [TROXERUTIN]	61.9	49.51
NCCc1c[nH]c2ccccc12 [TRYPTAMINE]	101	104.1
c1ccc2c3c([nH]c2c1)CNCC3 [TRYPTOLINE]	99.4	98.72
N[C@@H](Cc1c[nH]c2ccccc12)C(=O)O [TRYPTOPHAN]	93.19	97.09
NCCc1ccc(O)cc1 [TYRAMINE]	59.9	85.38
